Measured values taken from patent publication US8906889B2, “C-3 cycloalkenyl triterpenoids with HIV maturation inhibitory activity” (priority 2012, dated 2014).
Structures can show the parent of a compound that is named as a salt.

Tested on: recombinant NL4-3 virus (Renilla luciferase, Gag P373S)
Test: HIV cell culture assay (luciferase reporter, MT-2 cells)
Assay type: cell-based
Settings: MT-2 cells infected for 4-5 days with NLRluc recombinants; luciferase activity
Description: MT-2 cells and 293T cells were obtained from the NIH AIDS Research and Reference Reagent Program. MT-2 cells were propagated in RPMI 1640 media supplemented with 10% heat inactivated fetal bovine serum, […]. The 293T cells were propagated in DMEM media supplemented with 10% heat inactivated fetal bovine serum (FBS), 100 units/ml penicillin G and 100 μg/ml streptomycin. The proviral DNA clone of NL4-3 was obtained from the NIH AIDS Research and Reference Reagent Program. A recombinant NL4-3 virus, in which a section of the nef gene from NL4-3 was replaced with the Renilla luciferase gene, was used as a reference virus. In addition, residue Gag P373 was converted to P373S. Briefly, the recombinant virus was prepared by transfection of the altered proviral clone of NL4-3. Transfections were performed in 293T cells using LipofectAMINE PLUS from Invitrogen (Carlsbad, Calif.), according to manufacturer's instruction. The virus was titered in MT-2 cells using luciferase enzyme activity as a marker. Luciferase was quantitated using the Dual Luciferase kit from Promega (Madison, Wis.), with modifications to the manufacturer's protocol. The diluted Passive Lysis solution was pre-mixed with the re-suspended Luciferase Assay Reagent and the re-suspended Stop & Glo Substrate (2:1:1 ratio). Fifty (50) μL of the mixture was added to each aspirated well on assay plates and luciferase activity was measured immediately on a Wallac TriLux (Perkin-Elmer). Antiviral activities of inhibitors toward the recombinant virus were quantified by measuring luciferase activity in cells infected for 4-5 days with NLRluc recombinants in the presence serial dilutions of the inhibitor.

Going from `C=C(C)[C@@H]1CC[C@]2(NCCN3CCS(=O)(=O)CC3)CC[C@]3(C)[C@H](CC[C@@H]4[C@@]5(C)CC=C(C6=CC(C(=O)O)C(C(=O)O)C6)C(C)(C)[C@@H]5CC[C@]43C)[C@@H]12` (single isomer, unassigned) [Example A20] to `C=C(C)[C@@H]1CC[C@]2(NCCN3CCC(S(C)(=O)=O)CC3)CC[C@]3(C)[C@H](CC[C@@H]4[C@@]5(C)CC=C(C6=CC7C(C6)C7C(=O)O)C(C)(C)[C@@H]5CC[C@]43C)[C@@H]12` (single isomer, unassigned) [Example A28], the EC50 falls from 60 nM to 0.658 nM (91-fold).

Same assay, conditions: Renilla, NL43, MT-2 cells infected for 4-5 days with NLRluc recombinants; luciferase activity

Going from `C=C(C)[C@@H]1CC[C@]2(NCCN3CCC(S(C)(=O)=O)CC3)CC[C@]3(C)[C@H](CC[C@@H]4[C@@]5(C)CC=C(C6=CCC(C#N)(C(=O)O)CC6)C(C)(C)[C@@H]5CC[C@]43C)[C@@H]12` (mixture of isomers) [Example A6, 1-cyano-4-((1R,3aS,5aR,5bR,7aR,11aS,11bR,13aR,13bR)-5a,5b,8,8,11a-pentamethyl-3a-((2-(4-(methylsulfonyl)piperidin-1-yl)ethyl)amino)-1-(prop-1-en-2-yl)-2,3,3a,4,5,5a,5b,6,7,7a,8,11,11a,11b,12,13,13a,13b-octadecahydro-1H-cyclopenta[a]chrysen-9-yl)cyclohex-3-enecarboxylic acid] to `C=C(C)[C@@H]1CC[C@]2(NCCN3CCC(S(C)(=O)=O)CC3)CC[C@]3(C)[C@H](CC[C@@H]4[C@@]5(C)CC=C(C6=CCC(Cl)(C(=O)O)CC6)C(C)(C)[C@@H]5CC[C@]43C)[C@@H]12` (mixture of isomers) [Example A8, 1-chloro-4-((1R,3aS,5aR,5bR,7aR,11aS,11bR,13aR,13bR)-5a,5b,8,8,11a-pentamethyl-3a-((2-(4-(methylsulfonyl)piperidin-1-yl)ethyl)amino)-1-(prop-1-en-2-yl)-2,3,3a,4,5,5a,5b,6,7,7a,8,11,11a,11b,12,13,13a,13b-octadecahydro-1H-cyclopenta[a]chrysen-9-yl)cyclohex-3-enecarboxylic acid], the EC50 falls from 6.18 nM to 2.42 nM (2.6-fold). The second is the more potent here.

First: C=C(C)[C@@H]1CC[C@]2(NCCN3CCC(S(C)(=O)=O)CC3)CC[C@]3(C)[C@H](CC[C@@H]4[C@@]5(C)CC=C(C6=CCC(CCO)(C(=O)O)CC6)C(C)(C)[C@@H]5CC[C@]43C)[C@@H]12 (mixture of isomers) [Example A11]
Second: C=C(C)[C@@H]1CC[C@]2(NCCN3CCC(S(C)(=O)=O)CC3)CC[C@]3(C)[C@H](CC[C@@H]4[C@@]5(C)CC=C(C6=CCC(CO)(C(=O)O)CC6)C(C)(C)[C@@H]5CC[C@]43C)[C@@H]12 (mixture of isomers) [Example A13, 1-(hydroxymethyl)-4-((1R,3aS,5aR,5bR,7aR,11aS,11bR,13aR,13bR)-5a,5b,8,8,11a-pentamethyl-3a-((2-(4-(methylsulfonyl)piperidin-1-yl)ethyl)amino)-1-(prop-1-en-2-yl)-2,3,3a,4,5,5a,5b,6,7,7a,8,11,11a,11b,12,13,13a,13b-octadecahydro-1H-cyclopenta[a]chrysen-9-yl)cyclohex-3-enecarboxylic acid]
The EC50 of the first is 8.8-fold higher: 2.65 nM for the first, 0.301 nM for the second.

Going from `C=C(C)[C@@H]1CC[C@]2(NCCN3CCS(=O)(=O)CC3)CC[C@]3(C)[C@H](CC[C@@H]4[C@@]5(C)CC=C(C6=CC(CC(=O)O)CC6)C(C)(C)[C@@H]5CC[C@]43C)[C@@H]12` (mixture of isomers) [Example A15] to `C=C(C)[C@@H]1CC[C@]2(NCCN3CCS(=O)(=O)CC3)CC[C@]3(C)[C@H](CC[C@@H]4[C@@]5(C)CC=C(C6=CCC(C(=O)O)CC6)C(C)(C)[C@@H]5CC[C@]43C)[C@@H]12` (stereo in doubt) [Example 9, (R)-4-((1R,3aS,5aR,5bR,7aR,11aS,11bR,13aR,13bR)-3a-((2-(1,1-dioxidothiomorpholino)ethyl)amino)-5a,5b,8,8,11a-pentamethyl-1-(prop-1-en-2-yl)-2,3,3a,4,5,5a,5b,6,7,7a,8,11,11a,11b,12,13,13a,13b-octadecahydro-1H-cyclopenta[a]chrysen-9-yl)cyclohex-3-enecarboxylic acid, TFA], the EC50 rises from 0.547 nM to 0.892 nM (1.6-fold).

First: C=C(C)[C@@H]1CC[C@]2(NCCN3CCS(=O)(=O)CC3)CC[C@]3(C)[C@H](CC[C@@H]4[C@@]5(C)CC=C(C6=CC7C(C6)C7C(=O)O)C(C)(C)[C@@H]5CC[C@]43C)[C@@H]12 (mixture of isomers) [Example A18, 3-((1R,3aS,5aR,5bR,7aR,11aS,11bR,13aR,13bR)-3a-((2-(1,1-dioxidothiomorpholino)ethyl)amino)-5a,5b,8,8,11a-pentamethyl-1-(prop-1-en-2-yl)-2,3,3a,4,5,5a,5b,6,7,7a,8,11,11a,11b,12,13,13a,13b-octadecahydro-1H-cyclopenta[a]chrysen-9-yl)bicyclo[3.1.0]hex-2-ene-6-carboxylic acid]
Second: C=C(C)[C@@H]1CC[C@]2(NCCN3CCS(=O)(=O)CC3)CC[C@]3(C)[C@H](CC[C@@H]4[C@@]5(C)CC=C(C6=CC(C(=O)O)C(C(=O)O)C6)C(C)(C)[C@@H]5CC[C@]43C)[C@@H]12 (single isomer, unassigned) [Example A19]
The EC50 of the first is 44-fold lower: 2.26 nM for the first, 100 nM for the second.

Going from `C=C(C)[C@@H]1CC[C@]2(NCCN3CCC(S(C)(=O)=O)CC3)CC[C@]3(C)[C@H](CC[C@@H]4[C@@]5(C)CC=C(C6=CCC(NC(C)=O)(C(=O)O)CC6)C(C)(C)[C@@H]5CC[C@]43C)[C@@H]12` (mixture of isomers) [Example A32, 1-acetamido-4-((1R,3aS,5aR,5bR,7aR,11aS,11bR,13aR,13bR)-5a,5b,8,8,11a-pentamethyl-3a-((2-(4-(methylsulfonyl)piperidin-1-yl)ethyl)amino)-1-(prop-1-en-2-yl)-2,3,3a,4,5,5a,5b,6,7,7a,8,11,11a,11b,12,13,13a,13b-octadecahydro-1H-cyclopenta[a]chrysen-9-yl)cyclohex-3-enecarboxylic acid] to `C=C(C)[C@@H]1CC[C@]2(NCCN3CCC(S(C)(=O)=O)CC3)CC[C@]3(C)[C@H](CC[C@@H]4[C@@]5(C)CC=C(C6=CCC(CC(=O)O)CC6)C(C)(C)[C@@H]5CC[C@]43C)[C@@H]12` (mixture of isomers) [Example A33, 2-(4-((1R,3aS,5aR,5bR,7aR,11aS,11bR,13aR,13bR)-5a,5b,8,8,11a-pentamethyl-3a-((2-(4-(methylsulfonyl)piperidin-1-yl)ethyl)amino)-1-(prop-1-en-2-yl)-2,3,3a,4,5,5a,5b,6,7,7a,8,11,11a,11b,12,13,13a,13b-octadecahydro-1H-cyclopenta[a]chrysen-9-yl)cyclohex-3-en-1-yl)acetic acid], the EC50 rises from 1.5 nM to 570 nM (380-fold). The first is the more potent here.

`C=C(C)[C@@H]1CC[C@]2(NCCN3CCS(=O)(=O)CC3)CC[C@]3(C)[C@H](CC[C@@H]4[C@@]5(C)CC=C(C6=CC(C(F)(F)C(=O)O)CC6)C(C)(C)[C@@H]5CC[C@]43C)[C@@H]12` (single isomer, unassigned) [Example A23] and `C=C(C)[C@@H]1CC[C@]2(NCCN3CCS(=O)(=O)CC3)CC[C@]3(C)[C@H](CC[C@@H]4[C@@]5(C)CC=C(C6=CCC(C(F)(F)C(=O)O)C6)C(C)(C)[C@@H]5CC[C@]43C)[C@@H]12` (single isomer, unassigned) [Example A24] are within 1.5-fold of each other in EC50: 5.63 nM for the first, 4.65 nM for the second.

`C=C(C)[C@@H]1CC[C@]2(NCCN3CCS(=O)(=O)CC3)CC[C@]3(C)[C@H](CC[C@@H]4[C@@]5(C)CC=C(C6=CC7C(C6)C7C(=O)O)C(C)(C)[C@@H]5CC[C@]43C)[C@@H]12` (single isomer, unassigned) [Example A26] and `C=C(C)[C@@H]1CC[C@]2(NCCN3CCS(=O)(=O)CC3)CC[C@]3(C)[C@H](CC[C@@H]4[C@@]5(C)CC=C(C6=CCC(C(=O)O)CC6)C(C)(C)[C@@H]5CC[C@]43C)[C@@H]12` (stereo in doubt) [Example 10, (S)-4-((1R,3aS,5aR,5bR,7aR,11aS,11bR,13aR,13bR)-3a-((2-(1,1-dioxidothiomorpholino)ethyl)amino)-5a,5b,8,8,11a-pentamethyl-1-(prop-1-en-2-yl)-2,3,3a,4,5,5a,5b,6,7,7a,8,11,11a,11b,12,13,13a,13b-octadecahydro-1H-cyclopenta[a]chrysen-9-yl)cyclohex-3-enecarboxylic acid, TFA] are within 1.5-fold of each other in EC50: 0.941 nM for the first, 1.26 nM for the second.

For `C=C(C)[C@@H]1CC[C@]2(NCCN3CCC(S(C)(=O)=O)CC3)CC[C@]3(C)[C@H](CC[C@@H]4[C@@]5(C)CC=C(C6=CC7C(C6)C7C(=O)O)C(C)(C)[C@@H]5CC[C@]43C)[C@@H]12` (single isomer, unassigned) [Example A27], the EC50 was 0.921 nM.
